Source: patent US12071404B2, “Aza (indole)-, benzothiophene-, and benzofuran-3-sulfonamides” (UCB Pharma GmbH, priority 2016, dated 2024)

How the values were obtained:
GPR17 [1] = biological target: T1, GPR17 (Homo sapiens, UniProt Q13304); assay: Calcium mobilization functional assay (GPR17 Ca2+ assay); assay type: cell-based; parameters: host or cells: Flp-In T-REx CHO; details: CHO hGPR17 cells, inhibition of 50 nM MDL29,951, Calcium 5 dye, FLIPR; read-out: Ca2+ assay pIC50 (converted)
Outline: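 Flp-In T-REx CHO cells stably expressing human GPR17, doxycycline-induced (1 μg/mL, 16-20 h), loaded 60 min with Calcium 5 dye. Inhibition by varying test-compound concentrations of the 50 nM MDL29,951 agonist response was read by fluorescence over time at room temperature. pIC50 came from 4-parameter logistic fitting.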

GPR17 [2] = biological target: T1, GPR17; assay: cAMP accumulation functional assay (HTRF, Schild analysis); assay type: cell-based; parameters: host or cells: Flp-In T-REx CHO; details: CHO hGPR17 cells, Schild analysis vs MDL29,951, 5 μM forskolin, read-out: cAMP assay pA2 (converted)
Outline: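 CHO Flp-In T-REx cells with doxycycline-induced human GPR17 were preincubated 30 min at room temperature in HBSS-HEPES pH 7.4 with antagonist. cAMP was then measured by HTRF after 60 min. MDL29,951 pEC50 shifts gave dose ratios, and Schild analysis gave pA2.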

T1 sequence (Q13304 whole entry): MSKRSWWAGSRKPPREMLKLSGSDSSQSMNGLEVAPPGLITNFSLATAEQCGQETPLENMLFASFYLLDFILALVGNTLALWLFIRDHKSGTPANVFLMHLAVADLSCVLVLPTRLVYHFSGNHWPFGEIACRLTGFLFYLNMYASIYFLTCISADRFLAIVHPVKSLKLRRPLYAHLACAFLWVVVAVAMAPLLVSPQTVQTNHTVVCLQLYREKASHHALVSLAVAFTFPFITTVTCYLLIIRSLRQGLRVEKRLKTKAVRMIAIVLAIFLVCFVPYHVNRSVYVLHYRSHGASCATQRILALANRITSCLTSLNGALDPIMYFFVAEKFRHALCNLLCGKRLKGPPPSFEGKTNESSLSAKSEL

IC50 (GPR17 [1]) [nM]	Kb (GPR17 [2]) [nM]	Structure (SMILES)
3.16 to 31.6	< 3.16	O=S(=O)(Nc1cc(F)c(Br)cc1F)c1coc2cc(Cl)ccc12 [Compound I-259, N-(4-bromo-2,5-difluorophenyl)-6-chloro-1-benzofuran-3-sulfonamide]
3.16 to 31.6	3.16 to 31.6	O=S(=O)(Nc1cc(F)c(Cl)cc1F)c1c[nH]c2cc(Cl)c(F)cc12 [Compound I-263, 6-chloro-N-(4-chloro-2,5-difluorophenyl)-5-fluoro-1H-indole-3-sulfonamide]
< 3.16	< 3.16	O=S(=O)(Nc1cc(F)c(C(F)(F)F)cc1F)c1c[nH]c2cc(Cl)ccc12 [Compound I-269, 6-chloro-N-[2,5-difluoro-4-(trifluoromethyl)phenyl]-1H-indole-3-sulfonamide]
< 3.16	< 3.16	O=S(=O)(Nc1cc(F)c(Cl)cc1F)c1c[nH]c2cc3c(cc12)OCO3 [Compound I-271, N-(4-chloro-2,5-difluorophenyl)-5H-[1,3]dioxolo[4,5-f]indole-7-sulfonamide]
3.16 to 31.6	3.16 to 31.6	O=S(=O)(Nc1ccc(OC(F)(F)F)cc1F)c1c[nH]c2cc(Cl)ccc12 [Compound I-276, 6-chloro-N-[2-fluoro-4-(trifluoromethoxy)phenyl]-1H-indole-3-sulfonamide]
3.16 to 31.6	< 3.16	N#Cc1ccc2c(S(=O)(=O)Nc3cc(F)c(Cl)cc3F)c[nH]c2c1 [Compound I-277, N-(4-chloro-2,5-difluorophenyl)-6-cyano-1H-indole-3-sulfonamide]
3.16 to 31.6	3.16 to 31.6	COc1ccc2c(S(=O)(=O)Nc3cc(F)c(Cl)cc3F)c[nH]c2n1 [Compound I-281, N-(4-chloro-2,5-difluorophenyl)-6-methoxy-1H-pyrrolo[2,3-b]pyridine-3-sulfonamide]
3.16 to 31.6	3.16 to 31.6	N#Cc1ccc2c(S(=O)(=O)Nc3cc(F)c(OC(F)F)cc3F)c[nH]c2c1 [Compound I-282, 6-cyano-N-[4-(difluoromethoxy)-2,5-difluorophenyl]-1H-indole-3-sulfonamide]
3.16 to 31.6	> 31.6	O=C1OCc2cc(F)c(NS(=O)(=O)c3c[nH]c4nc(Cl)ccc34)cc21 [Compound I-284, 6-chloro-N-(6-fluoro-3-oxo-1,3-dihydro-2-benzofuran-5-yl)-1H-pyrrolo[2,3-b]pyridine-3-sulfonamide]
< 3.16	3.16 to 31.6	COc1ccc2c(S(=O)(=O)Nc3ccc(C(F)(F)F)cc3F)c[nH]c2c1 [Compound I-287, N-(2-fluoro-4-(trifluoromethyl)phenyl)-6-methoxy-1H-indole-3-sulfonamide]
< 3.16	3.16 to 31.6	COc1ccc2c(S(=O)(=O)Nc3cc(F)c(C#N)cc3OC)c[nH]c2c1 [Compound I-288, N-(4-cyano-5-fluoro-2-methoxyphenyl)-6-methoxy-1H-indole-3-sulfonamide]
< 3.16	< 3.16	O=S(=O)(Nc1ncc(Cl)cc1F)c1c[nH]c2cc(Br)ccc12 [Compound I-290, 6-Bromo-N-(5-chloro-3-fluoropyridin-2-yl)-1H-indole-3-sulfonamide]

More lines, now with the values behind:

Structure (SMILES)	IC50 (GPR17 [1]) [nM]	Kb (GPR17 [2]) [nM]
N#Cc1c(Cl)ccc2c(S(=O)(=O)Nc3cc(F)c(Cl)cc3F)c[nH]c12 [Compound I-256, 6-chloro-N-(4-chloro-2,5-difluorophenyl)-7-cyano-1H-indole-3-sulfonamide]	< 3.16	< 3.16
N#CCOc1cc(F)c(NS(=O)(=O)c2c[nH]c3cc(Cl)ccc23)cc1F [Compound I-257, 6-chloro-N-[4-(cyanomethoxy)-2,5-difluorophenyl]-1H-indole-3-sulfonamide]	< 3.16	< 3.16
N#Cc1ccc(NS(=O)(=O)c2c[nH]c3cc(Cl)c(F)cc23)c(F)c1 [Compound I-258, 6-chloro-N-(4-cyano-2-fluorophenyl)-5-fluoro-1H-indole-3-sulfonamide]	< 3.16	3.16 to 31.6
O=S(=O)(Nc1cc(F)c(OCC2CC2)cc1F)c1c[nH]c2cc(Cl)ccc12 [Compound I-260, 6-chloro-N-[4-(cyclopropylmethoxy)-2,5-difluorophenyl]-1H-indole-3-sulfonamide]	3.16 to 31.6	3.16 to 31.6
CS(=O)(=O)c1c(Cl)ccc2c(S(=O)(=O)Nc3cc(F)c(Cl)cc3F)c[nH]c12 [Compound I-261, 6-chloro-N-(4-chloro-2,5-difluorophenyl)-7-(methylsulfonyl)-1H-indole-3-sulfonamide]	3.16 to 31.6	3.16 to 31.6
O=S(=O)(Nc1cc(F)c(Cl)cc1F)c1c[nH]c2c(OCC(F)F)c(Cl)ccc12 [Compound I-262, 6-chloro-N-(4-chloro-2,5-difluorophenyl)-7-(2,2-difluoroethoxy)-1H-indole-3-sulfonamide]	3.16 to 31.6	< 3.16
COc1cnc(NS(=O)(=O)c2c[nH]c3cc(Cl)ccc23)c(OC)c1 [Compound I-264, 6-chloro-N-(3,5-dimethoxypyridin-2-yl)-1H-indole-3-sulfonamide]	> 31.6	> 31.6
O=C1NCc2cc(F)c(NS(=O)(=O)c3c[nH]c4cc(Cl)ccc34)cc21 [Compound I-265, 6-chloro-N-(6-fluoro-3-oxo-2,3-dihydro-1H-isoindol-5-yl)-1H-indole-3-sulfonamide]	3.16 to 31.6	> 31.6
O=S(=O)(Nc1cc(F)c(OC(F)F)cc1F)c1c[nH]c2nc(Cl)ccc12 [Compound I-266, 6-chloro-N-[4-(difluoromethoxy)-2,5-difluorophenyl]-1H-pyrrolo[2,3-b]pyridine-3-sulfonamide]	< 3.16	< 3.16
O=S(=O)(Nc1cc(F)c(OC(F)F)cc1F)c1c[nH]c2cc(Cl)ccc12 [Compound I-267, 6-chloro-N-[4-(difluoromethoxy)-2,5-difluorophenyl]-1H-indole-3-sulfonamide]	< 3.16	< 3.16
Cc1cc(F)c(NS(=O)(=O)c2c[nH]c3nc(Cl)ccc23)cc1F [Compound I-268, 6-chloro-N-(2,5-difluoro-4-methylphenyl)-1H-pyrrolo[2,3-b]pyridine-3-sulfonamide]	< 3.16	< 3.16
Cc1cc(F)c(NS(=O)(=O)c2c[nH]c3cc(Cl)ccc23)cc1F [Compound I-270, 6-chloro-N-(2,5-difluoro-4-methylphenyl)-1H-indole-3-sulfonamide]	< 3.16	< 3.16
COc1ccc2c(S(=O)(=O)Nc3cc(F)c(Br)cc3F)c[nH]c2n1 [Compound I-272, N-(4-bromo-2,5-difluorophenyl)-6-methoxy-1H-pyrrolo[2,3-b]pyridine-3-sulfonamide]	3.16 to 31.6	< 3.16
O=S(=O)(Nc1ccc(OC(F)(F)F)cc1F)c1c[nH]c2nc(Cl)ccc12 [Compound I-273, 6-chloro-N-[2-fluoro-4-(trifluoromethoxy)phenyl]-1H-pyrrolo[2,3-b]pyridine-3-sulfonamide]	3.16 to 31.6	3.16 to 31.6
C#Cc1ccc(NS(=O)(=O)c2c[nH]c3cc(OC)ccc23)c(F)c1 [Compound I-274, N-(4-ethynyl-2-fluorophenyl)-6-methoxy-1H-indole-3-sulfonamide]	3.16 to 31.6	3.16 to 31.6
O=S(=O)(Nc1ccc(Br)c(Cl)n1)c1c[nH]c2cc(Cl)ccc12 [Compound I-275, N-(5-bromo-6-chloropyridin-2-yl)-6-chloro-1H-indole-3-sulfonamide]	3.16 to 31.6	3.16 to 31.6
O=S(=O)(Nc1ccc(Cl)cc1F)c1c[nH]c2nc(Br)ccc12 [Compound I-278, 6-bromo-N-(4-chloro-2-fluorophenyl)-1H-pyrrolo[2,3-b]pyridine-3-sulfonamide]	3.16 to 31.6	< 3.16
Cc1cnc(NS(=O)(=O)c2c[nH]c3cc(Cl)ccc23)c(F)c1 [Compound I-279, 6-chloro-N-(3-fluoro-5-methylpyridin-2-yl)-1H-indole-3-sulfonamide]	3.16 to 31.6	3.16 to 31.6
O=S(=O)(Nc1ccc(I)cn1)c1c[nH]c2cc(Cl)ccc12 [Compound I-280, 6-chloro-N-(5-iodopyridin-2-yl)-1H-indole-3-sulfonamide]	3.16 to 31.6	3.16 to 31.6
C#Cc1ccc(NS(=O)(=O)c2c[nH]c3nc(OC)ccc23)c(F)c1 [Compound I-283, N-(4-ethynyl-2-fluorophenyl)-6-methoxy-1H-pyrrolo[2,3-b]pyridine-3-sulfonamide]	3.16 to 31.6	3.16 to 31.6
COc1ccc2c(S(=O)(=O)Nc3cc(F)c(Br)cc3F)c[nH]c2c1 [Compound I-285, N-(4-bromo-2,5-difluorophenyl)-6-methoxy-1H-indole-3-sulfonamide]	< 3.16	< 3.16
COc1cc(C#N)c(F)cc1NS(=O)(=O)c1c[nH]c2cc(Cl)ccc12 [Compound I-286, 6-chloro-N-(4-cyano-5-fluoro-2-methoxyphenyl)-1H-indole-3-sulfonamide]	< 3.16	< 3.16
COc1cc(C#N)c(F)cc1NS(=O)(=O)c1c[nH]c2c1ccc1ccccc12 [Compound I-289, N-(4-cyano-5-fluoro-2-methoxyphenyl)-1H-benzo[g]indole-3-sulfonamide]	< 3.16	< 3.16
COc1ccc2c(S(=O)(=O)Nc3cc(F)c(C#N)cc3F)c[nH]c2c1 [Compound I-291, N-(4-cyano-2,5-difluorophenyl)-6-methoxy-1H-indole-3-sulfonamide]	< 3.16	< 3.16
